Experimental data taken from the supplement of paper PMC10307832.

Columns and labels:
Assay in all cases: relative viability (nuclei count vs DMSO), 5 days (fraction); higher = more cells survive
[1] = compound: Cc1ccc(Nc2nccc(N(C)c3ccc4c(C)n(C)nc4c3)n2)cc1S(N)(=O)=O [Pazopanib] + CC(C)C[C@H](NC(=O)[C@H](Cc1ccccc1)NC(=O)c1cnccn1)B(O)O [Bortezomib] (partner 0.002 µM)
Outline: (§1)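 Nuclei were stained with Hoechst during a one-step fixation (final 0.05% Triton X-100, 1% formaldehyde, 1 ug/ml Hoechst) carried out 5 days after dosing, then counted on 4× images. The cells, lung cancer lines in 1536-well plates, had been dosed by pin tool the day after seeding with one drug alone or a fixed anchor-drug dose plus five library-drug doses (not always all listed) in √10 steps. Relative viability is the nuclei count in treated wells divided by that in vehicle wells, and each value is the median of duplicate plates.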

[2] = compound: Cc1ccc(C(=O)Nc2ccc(CN3CCN(C)CC3)c(C(F)(F)F)c2)cc1C#Cc1cnc2cccnn12 [Ponatinib] + CC(=O)c1c(C)c2cnc(Nc3ccc(N4CCNCC4)cn3)nc2n(C2CCCC2)c1=O [Palbociclib] (partner 0.5 µM)
Outline: as §1

[3] = compound: Cc1ccc(Nc2nccc(N(C)c3ccc4c(C)n(C)nc4c3)n2)cc1S(N)(=O)=O [Pazopanib] + O=C(CCCCCCC(=O)Nc1ccccc1)NO [Vorinostat] (partner 1 µM)
Outline: as §1

[4] = compound: Cc1ccc(C(=O)Nc2ccc(CN3CCN(C)CC3)c(C(F)(F)F)c2)cc1C#Cc1cnc2cccnn12 [Ponatinib] + C[C@@H](Oc1cc(-c2cnn(C3CCNCC3)c2)cnc1N)c1c(Cl)ccc(F)c1Cl [Crizotinib] (partner 1 µM)
Outline: as §1

| Cell Line | relative viability ([1]; first compound 0.01 µM) | relative viability ([1]; first compound 0.03162 µM) | relative viability ([1]; first compound 0.1 µM) | relative viability ([1]; first compound 0.3162 µM) | relative viability ([1]; first compound 1 µM) | relative viability ([2]; first compound 0.002 µM) | relative viability ([2]; first compound 0.006325 µM) | relative viability ([2]; first compound 0.06325 µM) | relative viability ([2]; first compound 0.2 µM) | relative viability ([3]; first compound 0.01 µM) | relative viability ([3]; first compound 0.03162 µM) | relative viability ([3]; first compound 0.1 µM) | relative viability ([3]; first compound 0.3162 µM) | relative viability ([3]; first compound 1 µM) | relative viability ([4]; first compound 0.002 µM) | relative viability ([4]; first compound 0.006325 µM) | relative viability ([4]; first compound 0.06325 µM) | relative viability ([4]; first compound 0.2 µM) |
| --- | --- | --- | --- | --- | --- | --- | --- | --- | --- | --- | --- | --- | --- | --- | --- | --- | --- | --- |
| NCI-H1755 | 0.883 | 0.973 | 0.966 | 0.928 | 1.04 | 0.419 | 0.44 | 0.413 | 0.369 | 0.65 | 0.744 | 0.876 | 0.812 | 0.75 | 0.858 | 0.869 | 0.896 | 0.822 |
| NCI-H1915 | 0.936 | 0.963 | 0.983 | 0.972 | 0.884 | 0.522 | 0.554 | 0.523 | 0.466 | 0.385 | 0.481 | 0.513 | 0.525 | 0.455 | 0.801 | 0.844 | 0.839 | 0.794 |
| NCI-H1975 | 0.356 | 0.346 | 0.461 | 0.464 | 0.448 | 0.427 | 0.557 | 0.642 | 0.537 | 0.712 | 0.76 | 0.805 | 0.723 | 0.754 | 0.929 | 1.02 | 1.01 | 0.943 |
| NCI-H1993 | 0.758 | 1.02 | 1.02 | 1.2 | 1.28 | 0.557 | 0.613 | 0.779 | 0.771 | – | 0.851 | 0.832 | 0.741 | 0.763 | 0.796 | 1.01 | 1.01 | 1 |
| NCI-H2009 | 0.892 | 1.11 | 0.876 | 0.955 | 0.906 | 0.161 | 0.225 | 0.238 | 0.202 | 0.72 | 0.744 | 0.757 | 0.692 | 0.765 | 1.04 | 0.975 | 1.11 | 1.02 |
| NCI-H2023 | 0.719 | 0.945 | 0.877 | 0.964 | 1.42 | 0.447 | 0.456 | 0.402 | 0.438 | 0.551 | 0.712 | 0.745 | 0.637 | 0.827 | 0.711 | 0.769 | 0.788 | 0.664 |
| NCI-H2085 | 1.04 | 1.09 | 1.01 | 1.02 | 1.13 | 0.466 | 0.458 | 0.509 | 0.509 | 0.674 | 0.849 | 0.758 | 0.838 | 0.86 | 0.837 | 0.704 | 0.939 | 0.842 |
| NCI-H2087 | 0.979 | 0.909 | 0.804 | 0.798 | 0.879 | 0.259 | 0.25 | 0.259 | 0.329 | 0.945 | 0.642 | 0.704 | 0.733 | 0.317 | 0.669 | 0.654 | 0.839 | 0.853 |
| NCI-H2126 | 1.05 | 1.14 | 1.11 | 1.07 | 1.09 | 0.365 | 0.34 | 0.374 | 0.333 | 0.588 | 0.747 | 0.76 | 0.822 | 0.732 | 0.97 | 1.02 | 1.1 | 1.03 |
| NCI-H2228 | 0.954 | 1.07 | 0.866 | 0.926 | 0.834 | 0.587 | 0.647 | 0.728 | 0.593 | 1.12 | 1.01 | 0.706 | 0.59 | 0.619 | 0.434 | 0.41 | 0.385 | 0.234 |
| NCI-H2347 | – | – | 1.23 | 0.95 | 0.997 | 0.504 | 0.441 | 0.451 | 0.404 | 0.522 | 0.593 | 0.736 | 0.587 | 0.83 | 0.694 | 0.885 | 0.668 | 0.688 |
| NCI-H2405 | 0.925 | 0.981 | 0.997 | 0.982 | 0.982 | 0.487 | 0.476 | 0.501 | 0.473 | 0.925 | 1.16 | 0.93 | 1.11 | 1.16 | 0.75 | 0.917 | 0.821 | 0.732 |
| NCI-H3122 | 1.04 | 0.985 | 0.917 | 1.02 | 1.1 | 0.194 | 0.186 | 0.213 | 0.203 | 0.794 | 0.926 | 0.89 | 1.02 | 1.05 | 0.267 | 0.278 | 0.315 | 0.366 |
| PC-3 [JPC-3] | 0.957 | 0.948 | 0.814 | 0.868 | 0.774 | – | 0.576 | 0.608 | 0.544 | – | 0.79 | 0.597 | 0.973 | 0.93 | 0.925 | 1.04 | 1.11 | 0.989 |
| PC-14 | 0.976 | 0.805 | 1.16 | 0.858 | 0.856 | 0.464 | 0.533 | 0.73 | 0.584 | 0.81 | 0.87 | 0.669 | 0.786 | 0.751 | 0.866 | 0.901 | 0.966 | 0.946 |
| RERF-LC-KJ | 1.03 | 1.05 | 1.05 | 1.16 | 1.04 | 1.11 | 1.22 | 1.27 | 0.971 | 0.63 | 0.79 | 0.622 | 0.601 | 0.596 | 0.816 | 0.766 | 0.928 | 0.834 |
| SK-LU-1 | 1.15 | 1.08 | 1.23 | 1.37 | 1.27 | 0.378 | 0.415 | 0.342 | 0.353 | 0.756 | 0.852 | 0.755 | 0.621 | 0.861 | 0.804 | 0.948 | 0.963 | 0.777 |
| SW 1573 | 0.945 | 1.14 | 1.08 | 1.09 | 1.17 | 0.411 | 0.402 | 0.341 | 0.401 | 0.641 | 0.692 | 0.648 | 0.992 | 0.525 | 0.707 | 0.876 | 0.887 | 0.608 |
